How the values were obtained:
[1] = target: Glycogen synthase kinase-3 beta (Homo sapiens, UniProt P49841); test: Inhibition of GSK-3beta (unknown origin)
[2] = Stability in mouse plasma assessed as parent compound remaining after 4 hrs by radio-HPLC analysis; type: ADME, cell-free; conditions: read-out: Stability
[3] = Stability in iv dosed KM mouse assessed as radioactivity of parent compound remaining in blood after 1 hrs by radio-HPLC analysis; type: ADME, organism-based; conditions: in vivo
[4] = Lipophilicity, logD of compound; type: physicochemical; conditions: octanol/water
[5] = Biodistribution in blood of iv dosed KM mouse assessed as radioactivity after 2 mins by imaging analysis; type: ADME, organism-based; conditions: in vivo
[6] = Biodistribution in brain of iv dosed KM mouse assessed as radioactivity after 2 mins by imaging analysis; type: ADME, organism-based; conditions: in vivo
[7] = Biodistribution in heart of iv dosed KM mouse assessed as radioactivity after 2 mins by imaging analysis; type: ADME, organism-based; conditions: in vivo
[8] = Biodistribution in liver of iv dosed KM mouse assessed as radioactivity after 2 mins by imaging analysis; type: ADME, organism-based; conditions: in vivo
[9] = Biodistribution in spleen of iv dosed KM mouse assessed as radioactivity after 2 mins by imaging analysis; type: ADME, organism-based; conditions: in vivo
[10] = Biodistribution in lung of iv dosed KM mouse assessed as radioactivity after 2 mins by imaging analysis; type: ADME, organism-based; conditions: in vivo
[11] = Biodistribution in kidney of iv dosed KM mouse assessed as radioactivity after 2 mins by imaging analysis; type: ADME, organism-based; conditions: in vivo
[12] = Biodistribution in pancreas of iv dosed KM mouse assessed as radioactivity after 2 mins by imaging analysis; type: ADME, organism-based; conditions: in vivo
[13] = Biodistribution in muscle of iv dosed KM mouse assessed as radioactivity after 2 mins by imaging analysis; type: ADME, organism-based, Muscle tissue; conditions: in vivo
[14] = Biodistribution in bone of iv dosed KM mouse assessed as radioactivity after 2 mins by imaging analysis; type: ADME, organism-based, Bone element; conditions: in vivo
[15] = Biodistribution in stomach of iv dosed KM mouse assessed as radioactivity after 2 mins by imaging analysis; type: ADME, organism-based; conditions: in vivo
[16] = Biodistribution in small intestine of iv dosed KM mouse assessed as radioactivity after 2 mins by imaging analysis; type: ADME, organism-based; conditions: in vivo
[17] = Biodistribution in blood of iv dosed KM mouse assessed as radioactivity after 10 mins by imaging analysis; type: ADME, organism-based; conditions: in vivo
[18] = Biodistribution in brain of iv dosed KM mouse assessed as radioactivity after 10 mins by imaging analysis; type: ADME, organism-based; conditions: in vivo
[19] = Biodistribution in heart of iv dosed KM mouse assessed as radioactivity after 10 mins by imaging analysis; type: ADME, organism-based; conditions: in vivo
[20] = Biodistribution in liver of iv dosed KM mouse assessed as radioactivity after 10 mins by imaging analysis; type: ADME, organism-based; conditions: in vivo
[21] = Biodistribution in spleen of iv dosed KM mouse assessed as radioactivity after 10 mins by imaging analysis; type: ADME, organism-based; conditions: in vivo
[22] = Biodistribution in lung of iv dosed KM mouse assessed as radioactivity after 10 mins by imaging analysis; type: ADME, organism-based; conditions: in vivo
[23] = Biodistribution in kidney of iv dosed KM mouse assessed as radioactivity after 10 mins by imaging analysis; type: ADME, organism-based; conditions: in vivo
[24] = Biodistribution in pancreas of iv dosed KM mouse assessed as radioactivity after 10 mins by imaging analysis; type: ADME, organism-based; conditions: in vivo
[25] = Biodistribution in muscle of iv dosed KM mouse assessed as radioactivity after 10 mins by imaging analysis; type: ADME, organism-based, Muscle tissue; conditions: in vivo
[26] = Biodistribution in bone of iv dosed KM mouse assessed as radioactivity after 10 mins by imaging analysis; type: ADME, organism-based, Bone element; conditions: in vivo
[27] = Biodistribution in stomach of iv dosed KM mouse assessed as radioactivity after 10 mins by imaging analysis; type: ADME, organism-based; conditions: in vivo
[28] = Biodistribution in small intestine of iv dosed KM mouse assessed as radioactivity after 10 mins by imaging analysis; type: ADME, organism-based; conditions: in vivo
[29] = Biodistribution in blood of iv dosed KM mouse assessed as radioactivity after 30 mins by imaging analysis; type: ADME, organism-based; conditions: in vivo, 0.5 h
[30] = Biodistribution in brain of iv dosed KM mouse assessed as radioactivity after 30 mins by imaging analysis; type: ADME, organism-based; conditions: in vivo, 0.5 h
[31] = Biodistribution in heart of iv dosed KM mouse assessed as radioactivity after 30 mins by imaging analysis; type: ADME, organism-based; conditions: in vivo, 0.5 h
[32] = Biodistribution in liver of iv dosed KM mouse assessed as radioactivity after 30 mins by imaging analysis; type: ADME, organism-based; conditions: in vivo, 0.5 h
[33] = Biodistribution in spleen of iv dosed KM mouse assessed as radioactivity after 30 mins by imaging analysis; type: ADME, organism-based; conditions: in vivo, 0.5 h
[34] = Biodistribution in lung of iv dosed KM mouse assessed as radioactivity after 30 mins by imaging analysis; type: ADME, organism-based; conditions: in vivo, 0.5 h
[35] = Biodistribution in kidney of iv dosed KM mouse assessed as radioactivity after 30 mins by imaging analysis; type: ADME, organism-based; conditions: in vivo, 0.5 h
[36] = Biodistribution in pancreas of iv dosed KM mouse assessed as radioactivity after 30 mins by imaging analysis; type: ADME, organism-based; conditions: in vivo, 0.5 h
[37] = Biodistribution in muscle of iv dosed KM mouse assessed as radioactivity after 30 mins by imaging analysis; type: ADME, organism-based, Muscle tissue; conditions: in vivo, 0.5 h
[38] = Biodistribution in bone of iv dosed KM mouse assessed as radioactivity after 30 mins by imaging analysis; type: ADME, organism-based, Bone element; conditions: in vivo, 0.5 h
[39] = Biodistribution in stomach of iv dosed KM mouse assessed as radioactivity after 30 mins by imaging analysis; type: ADME, organism-based; conditions: in vivo, 0.5 h
[40] = Biodistribution in small intestine of iv dosed KM mouse assessed as radioactivity after 30 mins by imaging analysis; type: ADME, organism-based; conditions: in vivo, 0.5 h
[41] = Biodistribution in blood of iv dosed KM mouse assessed as radioactivity after 60 mins by imaging analysis; type: ADME, organism-based; conditions: in vivo, 1 h
[42] = Biodistribution in brain of iv dosed KM mouse assessed as radioactivity after 60 mins by imaging analysis; type: ADME, organism-based; conditions: in vivo, 1 h
[43] = Biodistribution in heart of iv dosed KM mouse assessed as radioactivity after 60 mins by imaging analysis; type: ADME, organism-based; conditions: in vivo, 1 h
[44] = Biodistribution in liver of iv dosed KM mouse assessed as radioactivity after 60 mins by imaging analysis; type: ADME, organism-based; conditions: in vivo, 1 h
[45] = Biodistribution in spleen of iv dosed KM mouse assessed as radioactivity after 60 mins by imaging analysis; type: ADME, organism-based; conditions: in vivo, 1 h
[46] = Biodistribution in lung of iv dosed KM mouse assessed as radioactivity after 60 mins by imaging analysis; type: ADME, organism-based; conditions: in vivo, 1 h
[47] = Biodistribution in kidney of iv dosed KM mouse assessed as radioactivity after 60 mins by imaging analysis; type: ADME, organism-based; conditions: in vivo, 1 h
[48] = Biodistribution in pancreas of iv dosed KM mouse assessed as radioactivity after 60 mins by imaging analysis; type: ADME, organism-based; conditions: in vivo, 1 h
[49] = Biodistribution in muscle of iv dosed KM mouse assessed as radioactivity after 60 mins by imaging analysis; type: ADME, organism-based, Muscle tissue; conditions: in vivo, 1 h
[50] = Biodistribution in bone of iv dosed KM mouse assessed as radioactivity after 60 mins by imaging analysis; type: ADME, organism-based, Bone element; conditions: in vivo, 1 h
[51] = Biodistribution in stomach of iv dosed KM mouse assessed as radioactivity after 60 mins by imaging analysis; type: ADME, organism-based; conditions: in vivo, 1 h
[52] = Biodistribution in small intestine of iv dosed KM mouse assessed as radioactivity after 60 mins by imaging analysis; type: ADME, organism-based; conditions: in vivo, 1 h

Sequence of Glycogen synthase kinase-3 beta (P49841 whole entry): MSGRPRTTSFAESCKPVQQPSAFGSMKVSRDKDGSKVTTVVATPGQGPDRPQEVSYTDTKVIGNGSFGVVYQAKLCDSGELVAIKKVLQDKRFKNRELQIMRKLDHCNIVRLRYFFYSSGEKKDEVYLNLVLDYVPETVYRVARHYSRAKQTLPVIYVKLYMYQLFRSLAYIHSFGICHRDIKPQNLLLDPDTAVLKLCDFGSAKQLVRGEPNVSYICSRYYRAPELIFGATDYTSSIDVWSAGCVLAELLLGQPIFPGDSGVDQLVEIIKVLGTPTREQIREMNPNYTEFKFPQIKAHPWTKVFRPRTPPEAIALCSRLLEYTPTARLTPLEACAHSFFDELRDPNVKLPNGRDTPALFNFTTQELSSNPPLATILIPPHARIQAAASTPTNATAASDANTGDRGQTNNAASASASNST

O=C(Nc1cc(-c2nc(OCC3CC3)c(C(=O)N3CC(F)C3)s2)ccn1)C1CC1
IC50 [1]: 42.1 nM

CCOC(=O)c1sc(-c2ccnc(NC(=O)C3CC3)c2)nc1OCCOCCOCCF
IC50 [1]: 345 nM

CN(C)C(=O)c1sc(-c2ccnc(NC(=O)C3CC3)c2)nc1OCCF
IC50 [1]: 152 nM

CN(C)C(=O)c1sc(-c2ccnc(NC(=O)C3CC3)c2)nc1OCCOCCF
IC50 [1]: 149 nM

CCOC(=O)c1sc(-c2ccnc(NC(=O)C3CC3)c2)nc1OCCF
IC50 [1]: 68.1 nM

CNC(=O)c1sc(-c2ccnc(NC(=O)C3CC3)c2)nc1OCCF
IC50 [1]: 6 nM

CN(C)C(=O)c1sc(-c2ccnc(NC(=O)C3CC3)c2)nc1OCCOCCOCCF
IC50 [1]: 426 nM

O=C(NCCF)c1sc(-c2ccnc(NC(=O)C3CC3)c2)nc1OCC1CC1
IC50 [1]: 18.2 nM

CCOC(=O)c1sc(-c2ccnc(NC(=O)C3CC3)c2)nc1OCCOCCF
IC50 [1]: 422 nM

CNC(=O)c1sc(-c2ccnc(NC(=O)C3CC3)c2)nc1OCC[18F]
remaining at 4 h [2]: > 95%
Stability [3]: 90%
logD [4]: 2.24
Drug uptake [5]: 5.64 % ID/g
Drug uptake [6]: 1.68 % ID/g
Drug uptake [7]: 8.03 % ID/g
Drug uptake [8]: 22.28 % ID/g
Drug uptake [9]: 5.28 % ID/g
Drug uptake [10]: 7.28 % ID/g
Drug uptake [11]: 16.09 % ID/g
Drug uptake [12]: 7.32 % ID/g
Drug uptake [13]: 3.45 % ID/g
Drug uptake [14]: 2.83 % ID/g
Drug uptake [15]: 2.53 % ID/g
Drug uptake [16]: 9.74 % ID/g
Drug uptake [17]: 3.5 % ID/g
Drug uptake [18]: 0.77 % ID/g
Drug uptake [19]: 5.44 % ID/g
Drug uptake [20]: 32.93 % ID/g
Drug uptake [21]: 4.48 % ID/g
Drug uptake [22]: 4.5 % ID/g
Drug uptake [23]: 14.4 % ID/g
Drug uptake [24]: 5.07 % ID/g
Drug uptake [25]: 2.18 % ID/g
Drug uptake [26]: 2.42 % ID/g
Drug uptake [27]: 3.29 % ID/g
Drug uptake [28]: 11.16 % ID/g
Drug uptake [29]: 2.18 % ID/g
Drug uptake [30]: 0.42 % ID/g
Drug uptake [31]: 3.41 % ID/g
Drug uptake [32]: 23.75 % ID/g
Drug uptake [33]: 2.91 % ID/g
Drug uptake [34]: 2.87 % ID/g
Drug uptake [35]: 13.09 % ID/g
Drug uptake [36]: 3.05 % ID/g
Drug uptake [37]: 1.38 % ID/g
Drug uptake [38]: 2.05 % ID/g
Drug uptake [39]: 2.92 % ID/g
Drug uptake [40]: 24.4 % ID/g
Drug uptake [41]: 1.11 % ID/g
Drug uptake [42]: 0.31 % ID/g
Drug uptake [43]: 1.73 % ID/g
Drug uptake [44]: 15.27 % ID/g
Drug uptake [45]: 1.4 % ID/g
Drug uptake [46]: 1.54 % ID/g
Drug uptake [47]: 7.11 % ID/g
Drug uptake [48]: 1.76 % ID/g
Drug uptake [49]: 0.87 % ID/g
Drug uptake [50]: 2.91 % ID/g
Drug uptake [51]: 1.88 % ID/g
Drug uptake [52]: 31.31 % ID/g

CNC(=O)c1sc(-c2ccnc(NC(=O)C3CC3)c2)nc1OCCOCCF
IC50 [1]: 36.5 nM
